Laboratory results reported in publication PMC5362808, “Discovery of multi-target receptor tyrosine kinase inhibitors as novel anti-angiogenesis agents” (Scientific Reports, 2017).
Where two headings read alike, the source gives them in different places.

Tests used:
VEGFR-2 = VEGFR-2 (Homo sapiens, UniProt P35968); assay: ADP-Glo kinase inhibition assay, VEGFR-2; type: biochemical; details: read-out: VEGFR-2 inhibitory activity (IC50)
Experimental: (§1) Tyrosine kinase inhibition were tested by luminescent ADP-Glo^TM assay.
(§2) The kinase assay was performed in duplicate in a reaction mixture of final volume of 10 μL. […] The assay plate was incubated at 30 °C for 1 h. After the plate was cooled at room temperature for 5 min, 5 μL of ADP-Glo reagent was added into each well to stop the reaction and consume the remaining […] within 40 min. At the end, 10 μL of kinase detection reagent was added into the well and incubated for 30 min to produce a luminescence signal. […] The assay plate was incubated at 30 °C for 4 h. After the plate was cooled at room temperature for 5 min, 5 μL of ADP-Glo reagent was added into each well to stop the reaction and consume the remaining […] within 1 h. At the end, 10 μL of kinase detection reagent was added into the well and incubated for 30 min to produce a luminescence signal. The luminescence was read by VICTOR-X multi- label plate reader. The signal was correlated with the amount of […] present in the reaction and was […] with the kinase activity.

TIE-2 = TIE-2 (Homo sapiens, UniProt Q02763); assay: ADP-Glo kinase inhibition assay, TIE-2; type: biochemical
Sequence of TIE-2 (Q02763 23-1124): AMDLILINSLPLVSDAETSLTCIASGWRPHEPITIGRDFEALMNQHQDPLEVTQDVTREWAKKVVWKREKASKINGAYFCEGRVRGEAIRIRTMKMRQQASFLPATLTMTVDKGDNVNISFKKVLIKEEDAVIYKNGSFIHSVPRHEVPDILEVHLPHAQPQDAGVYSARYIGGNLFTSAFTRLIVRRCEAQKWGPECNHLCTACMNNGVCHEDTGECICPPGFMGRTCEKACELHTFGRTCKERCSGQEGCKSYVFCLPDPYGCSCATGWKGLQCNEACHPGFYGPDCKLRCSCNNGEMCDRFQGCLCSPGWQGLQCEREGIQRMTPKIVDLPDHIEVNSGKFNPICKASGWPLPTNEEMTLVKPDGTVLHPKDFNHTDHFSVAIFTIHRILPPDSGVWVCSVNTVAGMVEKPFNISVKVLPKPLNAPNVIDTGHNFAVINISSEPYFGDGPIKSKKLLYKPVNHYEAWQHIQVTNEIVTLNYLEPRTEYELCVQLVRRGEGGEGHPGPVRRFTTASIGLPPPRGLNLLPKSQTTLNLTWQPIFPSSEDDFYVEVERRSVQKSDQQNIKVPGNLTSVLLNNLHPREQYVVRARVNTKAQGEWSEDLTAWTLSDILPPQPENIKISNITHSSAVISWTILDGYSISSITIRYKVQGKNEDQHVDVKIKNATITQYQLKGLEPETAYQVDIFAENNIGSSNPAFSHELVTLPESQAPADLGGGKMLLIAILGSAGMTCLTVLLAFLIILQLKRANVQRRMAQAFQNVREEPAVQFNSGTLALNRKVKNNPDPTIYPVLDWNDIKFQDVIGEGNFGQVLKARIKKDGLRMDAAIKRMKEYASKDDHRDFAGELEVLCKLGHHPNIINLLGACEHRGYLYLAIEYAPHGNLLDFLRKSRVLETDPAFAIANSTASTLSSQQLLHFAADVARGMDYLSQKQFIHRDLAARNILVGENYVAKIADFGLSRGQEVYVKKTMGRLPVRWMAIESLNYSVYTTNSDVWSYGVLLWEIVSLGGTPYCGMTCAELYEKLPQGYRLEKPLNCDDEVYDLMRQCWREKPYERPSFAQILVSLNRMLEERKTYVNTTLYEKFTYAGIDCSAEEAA
Experimental: as §1, §2

EphB4 = molecular target: T1, EphB4 (Homo sapiens, UniProt P54760); assay: ADP-Glo kinase inhibition assay, EphB4; type: biochemical; details: read-out: EphB4 inhibitory activity (IC50)
T1 sequence (P54760 16-987): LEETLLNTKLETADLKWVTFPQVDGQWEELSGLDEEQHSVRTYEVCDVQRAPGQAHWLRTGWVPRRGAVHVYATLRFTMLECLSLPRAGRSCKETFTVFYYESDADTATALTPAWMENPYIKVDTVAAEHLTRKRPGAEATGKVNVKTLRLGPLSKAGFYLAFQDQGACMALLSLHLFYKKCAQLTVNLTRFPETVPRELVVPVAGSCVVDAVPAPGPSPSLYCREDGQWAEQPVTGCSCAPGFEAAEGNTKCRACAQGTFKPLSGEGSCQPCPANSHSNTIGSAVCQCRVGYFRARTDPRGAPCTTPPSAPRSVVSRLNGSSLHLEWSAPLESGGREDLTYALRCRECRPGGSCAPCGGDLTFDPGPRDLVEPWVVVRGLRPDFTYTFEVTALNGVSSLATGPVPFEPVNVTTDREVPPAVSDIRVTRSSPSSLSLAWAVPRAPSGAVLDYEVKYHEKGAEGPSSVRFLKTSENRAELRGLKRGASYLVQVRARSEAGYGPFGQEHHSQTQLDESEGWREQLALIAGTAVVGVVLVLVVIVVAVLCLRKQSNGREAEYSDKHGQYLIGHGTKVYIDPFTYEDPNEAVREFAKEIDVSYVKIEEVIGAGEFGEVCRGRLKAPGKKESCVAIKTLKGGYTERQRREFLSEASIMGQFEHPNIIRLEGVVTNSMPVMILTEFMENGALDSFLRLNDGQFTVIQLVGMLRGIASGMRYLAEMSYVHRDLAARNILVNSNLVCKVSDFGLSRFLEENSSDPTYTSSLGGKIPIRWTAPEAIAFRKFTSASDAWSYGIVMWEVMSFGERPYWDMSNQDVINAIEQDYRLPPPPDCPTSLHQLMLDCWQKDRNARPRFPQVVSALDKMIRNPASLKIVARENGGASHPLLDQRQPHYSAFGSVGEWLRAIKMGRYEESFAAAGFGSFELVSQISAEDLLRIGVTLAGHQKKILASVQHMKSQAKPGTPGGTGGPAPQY
Experimental: as §1, §2

B-Raf = B-Raf (Homo sapiens, UniProt P15056); assay: Kinase selectivity assay, B-Raf; type: biochemical; details: Table 3 selectivity profile
Sequence of B-Raf (P15056 whole entry, species assumed): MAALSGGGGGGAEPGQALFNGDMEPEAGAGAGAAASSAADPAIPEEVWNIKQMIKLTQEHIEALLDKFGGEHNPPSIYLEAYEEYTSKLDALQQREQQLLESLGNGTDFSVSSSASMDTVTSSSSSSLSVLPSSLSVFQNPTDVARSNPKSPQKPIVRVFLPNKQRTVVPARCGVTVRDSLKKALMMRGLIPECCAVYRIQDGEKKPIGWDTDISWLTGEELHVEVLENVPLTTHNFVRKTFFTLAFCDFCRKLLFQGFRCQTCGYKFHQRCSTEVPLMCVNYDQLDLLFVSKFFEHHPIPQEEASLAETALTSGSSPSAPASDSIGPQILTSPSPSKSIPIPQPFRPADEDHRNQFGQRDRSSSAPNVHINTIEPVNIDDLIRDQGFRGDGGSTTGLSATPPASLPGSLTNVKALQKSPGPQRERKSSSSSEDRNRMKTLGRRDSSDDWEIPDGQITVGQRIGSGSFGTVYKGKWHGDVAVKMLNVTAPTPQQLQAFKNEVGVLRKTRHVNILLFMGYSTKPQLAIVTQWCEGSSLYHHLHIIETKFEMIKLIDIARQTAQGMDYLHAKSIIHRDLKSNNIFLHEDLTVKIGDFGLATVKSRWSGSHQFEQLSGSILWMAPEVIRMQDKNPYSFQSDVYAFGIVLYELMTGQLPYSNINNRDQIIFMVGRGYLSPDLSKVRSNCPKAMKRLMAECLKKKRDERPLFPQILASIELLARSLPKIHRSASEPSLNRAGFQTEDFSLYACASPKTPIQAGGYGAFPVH

FGFR-1 = FGFR-1 (Homo sapiens, UniProt P11362); assay: Kinase selectivity assay, FGFR-1; type: biochemical; details: Table 3 selectivity profile
EGFR = EGFR (Homo sapiens, UniProt P00533); assay: Kinase selectivity assay, EGFR; type: biochemical; details: Table 3 selectivity profile
Sequence of EGFR (P00533 25-1210, species assumed): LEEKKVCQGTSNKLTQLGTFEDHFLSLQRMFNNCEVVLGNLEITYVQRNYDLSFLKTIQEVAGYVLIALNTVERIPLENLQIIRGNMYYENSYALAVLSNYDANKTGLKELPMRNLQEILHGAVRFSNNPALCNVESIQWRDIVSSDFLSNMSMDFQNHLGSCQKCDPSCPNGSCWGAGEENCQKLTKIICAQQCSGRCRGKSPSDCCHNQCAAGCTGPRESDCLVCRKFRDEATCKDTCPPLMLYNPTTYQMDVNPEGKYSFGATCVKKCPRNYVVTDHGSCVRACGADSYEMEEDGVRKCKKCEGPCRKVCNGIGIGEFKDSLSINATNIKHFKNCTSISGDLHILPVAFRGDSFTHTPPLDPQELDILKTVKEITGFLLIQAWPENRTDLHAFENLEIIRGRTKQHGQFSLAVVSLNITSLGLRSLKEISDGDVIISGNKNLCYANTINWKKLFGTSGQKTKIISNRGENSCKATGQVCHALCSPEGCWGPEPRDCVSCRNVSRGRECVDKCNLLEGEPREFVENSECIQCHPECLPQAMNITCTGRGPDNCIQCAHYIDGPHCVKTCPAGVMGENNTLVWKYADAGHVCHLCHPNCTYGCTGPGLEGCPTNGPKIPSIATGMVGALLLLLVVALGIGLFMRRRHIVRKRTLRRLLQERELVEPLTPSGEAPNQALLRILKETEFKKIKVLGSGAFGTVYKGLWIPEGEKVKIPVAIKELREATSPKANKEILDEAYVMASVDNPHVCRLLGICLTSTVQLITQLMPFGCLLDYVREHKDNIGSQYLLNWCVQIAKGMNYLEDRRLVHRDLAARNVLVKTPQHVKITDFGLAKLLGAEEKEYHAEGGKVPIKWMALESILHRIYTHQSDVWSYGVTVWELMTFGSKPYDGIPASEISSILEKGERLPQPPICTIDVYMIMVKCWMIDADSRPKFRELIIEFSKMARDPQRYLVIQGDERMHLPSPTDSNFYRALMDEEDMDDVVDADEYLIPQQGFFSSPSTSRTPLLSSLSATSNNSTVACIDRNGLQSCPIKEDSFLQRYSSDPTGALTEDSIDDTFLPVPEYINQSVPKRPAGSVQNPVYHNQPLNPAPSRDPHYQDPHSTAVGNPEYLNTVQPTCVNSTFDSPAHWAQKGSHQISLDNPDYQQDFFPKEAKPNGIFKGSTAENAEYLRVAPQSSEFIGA

Src = Src (Homo sapiens, UniProt P12931); assay: Kinase selectivity assay, Src; type: biochemical; details: Table 3 selectivity profile
Sequence of Src (P12931 whole entry, species assumed): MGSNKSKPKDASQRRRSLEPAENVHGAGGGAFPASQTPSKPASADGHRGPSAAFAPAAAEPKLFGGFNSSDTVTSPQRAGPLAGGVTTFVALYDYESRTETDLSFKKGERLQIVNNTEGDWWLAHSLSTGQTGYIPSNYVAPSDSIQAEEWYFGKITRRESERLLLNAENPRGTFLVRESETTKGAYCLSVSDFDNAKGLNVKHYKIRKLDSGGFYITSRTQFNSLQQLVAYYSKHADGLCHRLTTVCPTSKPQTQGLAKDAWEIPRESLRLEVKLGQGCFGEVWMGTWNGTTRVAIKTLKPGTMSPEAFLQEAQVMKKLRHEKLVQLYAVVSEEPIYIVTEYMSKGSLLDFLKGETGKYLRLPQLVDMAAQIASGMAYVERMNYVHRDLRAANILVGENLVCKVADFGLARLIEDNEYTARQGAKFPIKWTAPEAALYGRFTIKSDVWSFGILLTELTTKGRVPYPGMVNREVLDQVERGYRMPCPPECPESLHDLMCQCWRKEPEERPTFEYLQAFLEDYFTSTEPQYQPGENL

EA.hy926 = assay: MTT anti-proliferative assay against human vascular endothelial cell; type: cell-based; details: EA.hy 926, 48 h treatment
Experimental: Growth inhibitory activities were evaluated against human vascular endothelial cell (EA.hy926)[25]. Thirteen selected title compounds were tested using MTT assay to assess cell proliferation. Exponentially growing cells were harvested and plated in 96-well plates at a concentration of […] cells/well, and then incubated for 24 h at 37 °C. The cells were treated with title compounds respectively at various concentrations for 48 h. Then, […] fresh MTT (5 mg/mL) was added to each well and incubated for 4 h at 37 °C. Supernatant was discarded, and […] DMSO was added to each well. Absorbance values were determined by a microplate reader (Bio-Rad Instruments) at 490 nm. The IC50 values were calculated according to inhibition ratios.

[1] = tested on: mouse lung tissue blood vessels; assay: Tissue model for angiogenesis (TMA), lung tissue vessel sprouting; details: 15.6 μM; observed on the 5th day
Experimental: A novel tissue model for angiogenesis that imitated new blood vessels formation in vivo had been established in the previous study.
Figure 8 Anti-angiogenesis potency of compound CDAU-2 in tissue model for angiogenesis (TMA). (A–F) the representative images of lung tissue blood vessels in the TMA on the 5th day; (A) the untreated control group; (B–F) lung tissue vessels in the CDAU-2 treated group; (B) 1.94 μM; (C) 3.87 μM; (D) 7.75 μM; (E) 15.6 μM; (F) 62.5 μM.
In brief, the mouse lung tissue was separated and cut into pieces (0.5–1.0 mm^3)[27]. Then pieces of lung tissue were placed onto 48-well plate coated with polymerized fibrinogen with thrombin. After consolidation, each group was incubated with 200 μL/well 1640 medium containing different concentrations of CDAU-2. Control groups were incubated with 2.5% DMSO or 1640 medium alone.

[2] = Table 1, ATP 50 μM, read-out: Tie-2 inhibitory activity (IC50)
[3] = Table 2, ATP 50 μM, read-out: TIE-2 inhibitory activity (IC50)

Sequence of VEGFR-2 (P35968 20-1356): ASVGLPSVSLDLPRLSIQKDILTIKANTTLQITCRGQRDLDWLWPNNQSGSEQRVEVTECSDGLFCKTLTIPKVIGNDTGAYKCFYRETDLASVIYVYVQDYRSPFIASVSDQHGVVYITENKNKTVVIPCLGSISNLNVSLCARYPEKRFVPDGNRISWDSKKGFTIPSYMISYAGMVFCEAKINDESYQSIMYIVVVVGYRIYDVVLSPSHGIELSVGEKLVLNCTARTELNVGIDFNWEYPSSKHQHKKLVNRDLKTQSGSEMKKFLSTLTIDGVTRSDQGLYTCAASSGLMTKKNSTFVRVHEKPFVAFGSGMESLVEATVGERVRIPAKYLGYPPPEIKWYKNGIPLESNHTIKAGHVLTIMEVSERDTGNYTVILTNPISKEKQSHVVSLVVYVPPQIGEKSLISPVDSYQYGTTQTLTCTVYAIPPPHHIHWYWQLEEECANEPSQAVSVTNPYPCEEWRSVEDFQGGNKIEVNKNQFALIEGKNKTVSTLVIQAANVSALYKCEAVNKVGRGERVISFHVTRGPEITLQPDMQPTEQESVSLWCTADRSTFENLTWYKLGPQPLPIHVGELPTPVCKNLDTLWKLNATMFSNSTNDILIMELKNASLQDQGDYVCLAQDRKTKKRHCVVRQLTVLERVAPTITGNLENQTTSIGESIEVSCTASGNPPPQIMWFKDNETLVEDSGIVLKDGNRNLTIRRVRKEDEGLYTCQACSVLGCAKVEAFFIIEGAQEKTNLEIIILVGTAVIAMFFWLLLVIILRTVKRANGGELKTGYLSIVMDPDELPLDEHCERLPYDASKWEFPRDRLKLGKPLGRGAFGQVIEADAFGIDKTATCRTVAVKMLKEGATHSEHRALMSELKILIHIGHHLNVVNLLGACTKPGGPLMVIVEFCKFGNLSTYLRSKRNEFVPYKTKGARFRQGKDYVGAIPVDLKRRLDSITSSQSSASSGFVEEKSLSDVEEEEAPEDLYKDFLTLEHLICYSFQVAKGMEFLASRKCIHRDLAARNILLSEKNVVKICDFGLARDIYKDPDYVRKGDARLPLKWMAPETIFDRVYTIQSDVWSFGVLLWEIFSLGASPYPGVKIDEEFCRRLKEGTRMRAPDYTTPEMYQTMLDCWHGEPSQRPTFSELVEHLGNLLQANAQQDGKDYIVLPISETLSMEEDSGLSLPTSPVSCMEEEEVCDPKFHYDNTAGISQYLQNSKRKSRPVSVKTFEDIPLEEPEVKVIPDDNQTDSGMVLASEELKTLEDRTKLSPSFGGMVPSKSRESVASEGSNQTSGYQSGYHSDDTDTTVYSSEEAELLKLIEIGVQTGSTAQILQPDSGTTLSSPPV

| SMILES | IC50 (VEGFR-2; Table 1, ATP 50 μM) [µM] | IC50 (TIE-2; [2]) [µM] | IC50 (EphB4; Table 1, ATP 50 μM) [µM] | IC50 (VEGFR-2; Table 2, ATP 50 μM) [µM] | IC50 (TIE-2; [3]) [µM] | IC50 (EphB4; Table 2, ATP 50 μM) [µM] | IC50 (EA.hy926) [µM] | other results |
| --- | --- | --- | --- | --- | --- | --- | --- | --- |
| O=C(Nc1ccc(-c2cccc(NC(=O)C3CC3)n2)cc1)Nc1ccc(Cl)c(C(F)(F)F)c1 [CDAU-12, N-(6-(4-(3-(4-chloro-3-(trifluoromethyl)phenyl)ureido)phenyl)pyridin-2-yl)cyclopropanecarboxamide] | – | – | – | > 1 | > 1 | > 1 | – | – |
| O=C(Nc1ccc(F)cc1)Nc1ccc(-c2cccc(NC(=O)C3CC3)n2)cc1 [CDAU-14] | – | – | – | – | 0.0329 | > 1 | – | – |
| CC(C)(C)c1ccc(NC(=O)Nc2ccc(-c3cccc(NC(=O)C4CC4)n3)cc2)cc1 [CDAU-15] | – | – | – | 0.028 | > 1 | – | – | – |
| O=C(Nc1ccc(-c2cccc(NC(=O)C3CC3)n2)cc1)Nc1ccccc1Cl [CDAU-16] | – | – | – | 0.0734 | > 1 | > 1 | – | – |
| O=C(Nc1ccc(-c2cccc(NC(=O)C3CC3)n2)cc1)Nc1cccc(Cl)c1 [CDAU-18] | – | – | – | – | 0.00492 | > 1 | 22.6 | – |
| O=C(Nc1ccc(OC(F)(F)F)cc1)Nc1ccc(-c2cccc(NC(=O)C3CC3)n2)cc1 [CDAU-19] | – | – | – | 0.034 | – | > 1 | 31 | – |
| O=C(Nc1ccc(-c2cccc(NC(=O)C3CC3)n2)cc1)Nc1ccc(Cl)cc1Cl [CDAU-20] | – | – | – | 0.0427 | 0.0788 | – | 45.7 | – |
| O=C(Nc1ccc(-c2cccc(NC(=O)C3CC3)n2)cc1)Nc1cccc(C(F)(F)F)c1 [CDAU-21] | – | – | – | 0.00627 | 0.0428 | 0.162 | 40.5 | – |
| O=C(Nc1ccc(-c2cccc(NC(=O)C3CC3)n2)cc1)Nc1ccc(F)cc1F [CDAU-22] | – | – | – | > 1 | > 1 | – | – | – |
| O=C(Nc1ccc(-c2cccc(NC(=O)C3CC3)n2)cc1)Nc1ccccc1F [CDAU-23] | – | – | – | > 1 | > 1 | – | – | – |

Now from value to compound, other results behind:

| IC50 (VEGFR-2; Table 1, ATP 50 μM) [µM] | IC50 (TIE-2; [2]) [µM] | IC50 (EphB4; Table 1, ATP 50 μM) [µM] | IC50 (VEGFR-2; Table 2, ATP 50 μM) [µM] | IC50 (TIE-2; [3]) [µM] | IC50 (EphB4; Table 2, ATP 50 μM) [µM] | SMILES | IC50 (EA.hy926) [µM] | other results |
| --- | --- | --- | --- | --- | --- | --- | --- | --- |
| 0.00111 | 0.0072 | 0.00534 | – | – | – | O=C(Nc1ccc(-c2ccc(NC(=O)C3CC3)nc2)cc1)Nc1cccc(C(F)(F)F)c1 [CDAU-1, N-(5-(4-(3-(3-(trifluoromethyl)phenyl)ureido)phenyl)pyridin-2-yl)cyclopropanecarboxamide] | 16.1 | IC50 (B-Raf): 0.0572 µM; IC50 (FGFR-1): 0.155 µM; IC50 (EGFR): 0.204 µM; IC50 (Src): > 0.5 µM; melting point: 270 to 272 °C |
| 0.00101 | 0.00832 | 0.00511 | – | – | – | O=C(Nc1ccc(-c2ccc(NC(=O)C3CC3)nc2)cc1)Nc1ccc(Cl)c(C(F)(F)F)c1 [CDAU-2] | 14.5 | IC50 (B-Raf): 0.0346 µM; IC50 (FGFR-1): 0.317 µM; IC50 (EGFR): 0.191 µM; IC50 (Src): > 0.5 µM; Anti-angiogenesis potency: inhibition of vessel outgrowth from lung tissue [1]: inhibited vessels outgrew from the periphery of the lung tissues evidently |
| 0.002 | 0.0275 | > 1 | – | – | – | O=C(Nc1ccc(-c2ccc(NC(=O)C3CC3)nc2)cc1)Nc1ccc(C(F)(F)F)c(C(F)(F)F)c1 [CDAU-3] | 309 | melting point: 241 to 243 °C |
| 0.00142 | > 1 | – | – | – | – | O=C(Nc1ccc(-c2ccc(NC(=O)C3CC3)nc2)cc1)Nc1ccc(F)c(F)c1 [CDAU-4] | 85 | – |
| 0.00552 | 0.0613 | > 1 | – | – | – | O=C(Nc1ccc(-c2ccc(NC(=O)C3CC3)nc2)cc1)Nc1ccc(C(F)(F)F)c(Cl)c1 [CDAU-5] | 152 | – |
| 0.0233 | 0.0329 | 0.948 | – | – | – | O=C(Nc1ccc(-c2ccc(NC(=O)C3CC3)nc2)cc1)Nc1cccc(Cl)c1 [CDAU-6] | 880 | – |
| > 1 | > 1 | > 1 | – | – | – | O=C(Nc1ccc(-c2ccc(NC(=O)C3CC3)nc2)cc1)Nc1ccccc1F [CDAU-7] | 46.2 | – |
| > 1 | > 1 | > 1 | – | – | – | O=C(Nc1ccc(OC(F)(F)F)cc1)Nc1ccc(-c2ccc(NC(=O)C3CC3)nc2)cc1 [CDAU-8] | – | – |
| > 1 | 0.858 | > 1 | – | – | – | CC(C)(C)NC(=O)Nc1ccc(-c2ccc(NC(=O)C3CC3)nc2)cc1 [CDAU-9] | – | – |
| > 1 | > 1 | > 1 | – | – | – | CN(C)CCNC(=O)Nc1ccc(-c2ccc(NC(=O)C3CC3)nc2)cc1 [CDAU-10] | > 1000 | – |
| > 1 | > 1 | > 1 | – | – | – | CN(C)C(=O)Nc1ccc(-c2ccc(NC(=O)C3CC3)nc2)cc1 [CDAU-11] | – | – |
| – | – | – | > 1 | 0.271 | > 1 | Cc1ccc(NC(=O)Nc2ccc(-c3cccc(NC(=O)C4CC4)n3)cc2)cc1Cl [CDAU-13] | – | – |
| – | – | – | 0.063 | – | 0.17 | CC(C)c1cccc(NC(=O)Nc2ccc(-c3cccc(NC(=O)C4CC4)n3)cc2)c1 [CDAU-17] | 133 | – |
| – | – | – | > 1 | > 1 | – | O=C(Nc1ccc(-c2cccc(NC(=O)C3CC3)n2)cc1)Nc1cccc(F)c1 [CDAU-24] | – | – |
| – | – | – | – | > 1 | > 1 | Cc1cccc(C)c1NC(=O)Nc1ccc(-c2cccc(NC(=O)C3CC3)n2)cc1 [CDAU-25] | – | – |
